# Experimental data reported in US6660742B2, “Compositions and methods of the use thereof achiral analogues of CC-1065 and the duocarmycins” (priority 2000, dated 2003).
# Read-outs that look alike come from different tables or passages of the source.
# Columns and labels:
# [1] = test system: K562 human chronic myeloid leukemia cells; assay: MTT cytotoxicity on K562 cells; type: cell-based; conditions: K562 cells
# [2] = test system: MALME-3M
# Experimental: The compounds of this invention were also tested against the panel of 60 human cancer cell lines at the National Cancer Institute, Bethesda, Md. […] The cytrotoxicity studies were conducted using a 48 hour exposure, and measuring the optical density of sulforhodamide B-derived color.
structure (smiles),measurement,setting,value
"O=C(Nc1cc(O)ccc1CCCl)c1cc2cc(NC(=O)c3cc4ccccc4o3)ccc2[nH]1 [Compound 1, 4-(2-Chloroethyl)-3-[5-(5-benzofuran-2-carboxamido)indole-2-carboxamido]phenol]",IC50,"[1]; continuous exposure (3 days), read-out: IC50 continuous exposure (3 days)",1.47 ± 0.8 µM
same,IC50,"[1]; read-out: IC50 1 hour exposure, 1 hour exposure",12.1 ± 1.8 µM
same,GI50,[2],1.84 µM
same,TGI,[2],3.56E−06 Molar
same,Percent Growth,[2]; Log10 Concentration −4.0,−95%
same,Percent Growth,[2]; Log10 Concentration −7.0,102%
same,Percent Growth,[2]; Log10 Concentration −8.0,102%
